Key:
Format in all cases: cell-based, HIV-1
[1] = test system: HIV strain L100I; test: Cellular anti-HIV assay in MT4 LTR-EGFP cells, mutant L100I; settings: Human immunodeficiency virus 1, read-out: L100I pEC50 (converted)
Protocol: (§1) Because of the increasing emergence of drug resistant HIV strains, the present compounds were tested for their potency against clinically isolated HIV strains harbouring several mutations. These mutations are associated with resistance to reverse transcriptase inhibitors and result in viruses that show various degrees of phenotypic cross-resistance to the currently commercially available drugs such as for instance AZT and delavirdine.
(§2) The antiviral activity of the compound of the present invention has been evaluated in the presence of wild type HIV and HIV mutants bearing mutations at the reverse transcriptase gene. The activity of the compounds is evaluated using a cellular assay which was performed according to the following procedure.
(§3) The human T-cell line MT4 is engineered with Green Fluorescent Protein (GFP) and an HIV-specific promoter, HIV-1 long terminal repeat (LTR). This cell line is designated MT4 LTR-EGFP, and can be used for the in vitro evaluation of anti-HIV activity of investigational compounds. In HIV-1 infected cells, the Tat protein is produced which upregulates the LTR promotor and finally leads to stimulation of the GFP reporter production, allowing to measure ongoing HIV-infection fluorometrically. Analogously, MT4 cells are engineered with GFP and the constitutional cytomegalovirus (CMV) promotor. This cell line is designated MT4 CMV-EGFP, and can be used for the in vitro evaluation of cytotoxicity of investigational compounds. In this cell line, GFP levels are comparably to those of infected MT4 LTR-EGFP cells. Cytotoxic investigational compounds reduce GFP levels of mock-infected MT4 CMV-EGFP cells.
(§4) Effective concentration values such as 50% effective concentration (EC50) can be determined and are usually expressed in μM. An EC50 value is defined as the concentration of test compound that reduces the fluorescence of HIV-infected cells by 50%. The 50% cytotoxic concentration (CC50 in μM) is defined as the concentration of test compound that reduces fluorescence of the mock-infected cells by 50%. The ratio of CC50 to EC50 is defined as the selectivity index (SI) and is an indication of the selectivity of the anti-HIV activity of the inhibitor. The ultimate monitoring of HIV-1 infection and cytotoxicity is done using a scanning microscope. Image analysis allows very sensitive detection of viral infection. Measurements are done before cell necrosis, which usually takes place about five days after infection, in particular measurements are performed three days after infection.
(§5) The columns IIIB, L100I, etc. in the table list the pEC50 values against various strains IIIB, L100I, etc.

[2] = test system: HIV strain Y188L; test: Cellular anti-HIV assay in MT4 LTR-EGFP cells, mutant Y188L; settings: Human immunodeficiency virus 1, read-out: Y188L pEC50 (converted)
Protocol: as §1, §2, §3, §4, §5

[3] = test system: HIV strain L100I + K103N; test: Cellular anti-HIV assay in MT4 LTR-EGFP cells, mutant L100I + K103N; settings: Human immunodeficiency virus 1, 72 h, read-out: L100I + K103N pEC50 (converted)
Protocol: as §1, §2, §3, §4, §5

[4] = test system: HIV strain IIIB (wild type); test: Cellular anti-HIV assay in MT4 LTR-EGFP cells, strain IIIB (wild type); selectivity index versus cytotoxicity in mock-infected MT4 CMV-EGFP cells; settings: for EC50: Human immunodeficiency virus 1, 72 h, wild type HIV strain IIIB, MT4 LTR-EGFP cells, fluorescence, three days after infection, read-out: IIIB pEC50 (converted); for IIIB pSi: selectivity index = ratio of CC50 (mock-infected MT4 CMV-EGFP cells) to EC50 (IIIB), given as p value
Protocol: as §2, §3, §4, §5
Strain IIIB is wild type HIV strain

[5] = test system: HIV strain K103N + Y181C; test: Cellular anti-HIV assay in MT4 LTR-EGFP cells, mutant K103N + Y181C; settings: Human immunodeficiency virus 1, 72 h, read-out: K103N + Y181C pEC50 (converted)
Protocol: as §1, §2, §3, §4, §5

[6] = test system: HIV strain Y181C; test: Cellular anti-HIV assay in MT4 LTR-EGFP cells, mutant Y181C; settings: Human immunodeficiency virus 1, read-out: Y181C pEC50 (converted)
Protocol: as §1, §2, §3, §4, §5

[7] = test system: HIV strain K103N; test: Cellular anti-HIV assay in MT4 LTR-EGFP cells, mutant K103N; settings: Human immunodeficiency virus 1, read-out: K103N pEC50 (converted)
Protocol: as §1, §2, §3, §4, §5

[8] = test system: HIV strain MDR; test: Cellular anti-HIV assay in MT4 LTR-EGFP cells, MDR strain; settings: Human immunodeficiency virus 1, read-out: MDR pEC50 (converted)
Protocol: as §1, §2, §3, §4, §5
MDR refers to a strain that contains mutations L100I, K103N, Y181C, E138G, V1791, L2214F, V278V/I and A327A/V in HIV reverse transcriptase.

Cc1cc(/C=C/C#N)cc(C)c1Nc1nc(Nc2ccc(C#N)cc2)ncc1C(=O)N1CCCCC1 [Compound 2]
EC50 [1]: 0.0631 µM
EC50 [2]: 0.398 µM
EC50 [3]: 0.2 µM
EC50 [4]: 0.00316 µM
IIIB pSi [4]: >3.90
EC50 [5]: 0.501 µM
EC50 [6]: 0.126 µM
EC50 [7]: 0.0126 µM
EC50 [8]: 10 µM

Cc1cc(/C=C/C#N)cc(C)c1Nc1nc(Nc2ccc(C#N)cc2)ncc1C(=O)Nc1ccccn1 [Compound 3]
EC50 [1]: 0.00501 µM
EC50 [2]: 0.0251 µM
EC50 [3]: 0.0126 µM
EC50 [4]: 0.002 µM
IIIB pSi [4]: 4.00
EC50 [5]: 0.0631 µM
EC50 [6]: 0.0158 µM
EC50 [7]: 0.00316 µM
EC50 [8]: 2.51 µM

Cc1cc(/C=C/C#N)cc(C)c1Nc1nc(Nc2ccc(C#N)cc2)ncc1C(=O)N(C)c1ccccc1 [Compound 5]
EC50 [1]: 0.0251 µM
EC50 [2]: 0.1 µM
EC50 [3]: 0.0501 µM
EC50 [4]: 0.00501 µM
IIIB pSi [4]: >3.70
EC50 [5]: 0.158 µM
EC50 [6]: 0.1 µM
EC50 [7]: 0.01 µM
EC50 [8]: 3.98 µM

Cc1cc(/C=C/C#N)cc(C)c1Nc1nc(Nc2ccc(C#N)cc2)ncc1C(=O)N1CCN(C)CC1 [Compound 6]
EC50 [1]: 0.158 µM
EC50 [2]: 0.316 µM
EC50 [3]: 1.26 µM
EC50 [4]: 0.00158 µM
IIIB pSi [4]: >4.20
EC50 [5]: 0.398 µM
EC50 [6]: 0.1 µM
EC50 [7]: 0.00501 µM
EC50 [8]: 10 µM

Cc1cc(/C=C/C#N)cc(C)c1Nc1nc(Nc2ccc(C#N)cc2)ncc1C(=O)N(C)CCO [Compound 7]
EC50 [1]: 0.00794 µM
EC50 [2]: 0.0501 µM
EC50 [3]: 0.0501 µM
EC50 [4]: 0.00158 µM
IIIB pSi [4]: 4.00
EC50 [5]: 0.0631 µM
EC50 [6]: 0.02 µM
EC50 [7]: 0.002 µM
EC50 [8]: 2 µM

COCCCNC(=O)c1cnc(Nc2ccc(C#N)cc2)nc1Nc1c(C)cc(/C=C/C#N)cc1C [Compound 9]
EC50 [1]: 0.00501 µM
EC50 [2]: 0.0158 µM
EC50 [3]: 0.0251 µM
EC50 [4]: 0.00251 µM
IIIB pSi [4]: >4.00
EC50 [5]: 0.02 µM
EC50 [6]: 0.0126 µM
EC50 [7]: 0.00316 µM
EC50 [8]: 1 µM

Cc1cc(/C=C/C#N)cc(C)c1Nc1nc(Nc2ccc(C#N)cc2)ncc1C(=O)NCC1COC(C)(C)O1 (stereo not drawn) [Compound 10]
EC50 [1]: 0.00398 µM
EC50 [2]: 0.02 µM
EC50 [3]: 0.0398 µM
EC50 [4]: 0.00251 µM
IIIB pSi [4]: >4.00
EC50 [5]: 0.0631 µM
EC50 [6]: 0.0158 µM
EC50 [7]: 0.00316 µM
EC50 [8]: 0.501 µM

CCOC(=O)CN(C)C(=O)c1cnc(Nc2ccc(C#N)cc2)nc1Nc1c(C)cc(/C=C/C#N)cc1C [Compound 11]
EC50 [1]: 0.00794 µM
EC50 [2]: 0.0251 µM
EC50 [3]: 0.0501 µM
EC50 [4]: 0.002 µM
IIIB pSi [4]: 3.40
EC50 [5]: 0.0794 µM
EC50 [6]: 0.0398 µM
EC50 [7]: 0.00398 µM
EC50 [8]: 1.58 µM

Cc1cc(/C=C/C#N)cc(C)c1Nc1nc(Nc2ccc(C#N)cc2)ncc1C(=O)NCC1CCCO1 (stereo not drawn) [Compound 12]
EC50 [1]: 0.00251 µM
EC50 [2]: 0.01 µM
EC50 [3]: 0.02 µM
EC50 [4]: 0.00126 µM
IIIB pSi [4]: 4.10
EC50 [5]: 0.0126 µM
EC50 [6]: 0.0158 µM
EC50 [7]: 0.00251 µM
EC50 [8]: 1 µM

CCOC(=O)CCNC(=O)c1cnc(Nc2ccc(C#N)cc2)nc1Nc1c(C)cc(/C=C/C#N)cc1C [Compound 14]
EC50 [1]: 0.00251 µM
EC50 [2]: 0.0126 µM
EC50 [3]: 0.0158 µM
EC50 [4]: 0.00251 µM
IIIB pSi [4]: >4.00
EC50 [5]: 0.01 µM
EC50 [6]: 0.0126 µM
EC50 [7]: 0.00251 µM
EC50 [8]: 0.631 µM

Cc1cc(/C=C/C#N)cc(C)c1Nc1nc(Nc2ccc(C#N)cc2)ncc1C(=O)NCc1ccncc1 [Compound 15]
EC50 [1]: 0.0126 µM
EC50 [2]: 0.02 µM
EC50 [3]: 0.0631 µM
EC50 [4]: 0.00316 µM
IIIB pSi [4]: 3.70
EC50 [5]: 0.02 µM
EC50 [6]: 0.0158 µM
EC50 [7]: 0.00316 µM
EC50 [8]: 0.2 µM
